According to article PMC6961345 (Antiviral Chemistry & Chemotherapy, 2018):
Values joined by “and” are separate entries in the source; they are usually repeats but may differ in a detail not shown here. Equal entries are not always repeated. “Also recorded” adds a separate entry of the source. Where two headings read alike, the source gives them in different places.

What was measured:
[1] = system: A/Vietnam/1203/2004 (H5N1); assay: microbe, parasite or virus in culture; format: cell-based, influenza A virus; details: for EC90: Influenza A virus, H5N1, 48 h
A/Anhui/1/2013 (H7N9) = assay: microbe, parasite or virus in culture; format: cell-based, influenza A virus; details: for EC90: Influenza A virus, H7N9, 48 h
A/Perth/16/2009 (H3N2) = assay: microbe, parasite or virus in culture; format: cell-based, influenza A virus; details: for EC90: two independent assays
[2] = system: A/Tennessee/1-560/2009 (H1N1)pdm09; assay: microbe, parasite or virus in culture; format: cell-based, influenza A virus; details: for EC90: two independent assays
[3] = system: influenza A/Brisbane/59/2007 (H1N1) virus; format: cell-based
[4] = system: A/Brisbane/59/2007 (H1N1); assay: microbe, parasite or virus in culture; format: cell-based, influenza A virus; details: for EC90: two independent assays
B/Texas/06/2011 = assay: microbe, parasite or virus in culture; format: cell-based, influenza B virus; details: for EC90: two independent assays
[5] = system: Differentiated NHBE cells; details: for enisamium uptake: 1000 µM, 2000 µM (Figure 2 legend)
[6] = system: Undifferentiated NHBE cells; details: 2000 µM enisamium chloride, 24 h
[7] = system: influenza A/Brisbane/59/2007 (H1N1) virus; assay: Time-of-addition experiment in dNHBE cells; format: cell-based
[8] = system: influenza A/Brisbane/59/2007 (H1N1) virus; format: cell-based; remark: listed apart in the source
[9] = system: viral M gene RNA (A/Brisbane/59/2007); format: cell-based, influenza A virus; details: 8, 12, 18 and 24 h
[10] = system: segment 7 viral, complementary, and messenger RNA (A/Brisbane/59/2007); format: cell-based, influenza A virus; details: 24 h incubation
MDCK cells = details: 100 µM enisamium iodide, 24 h, n = 3 wells
[11] = system: influenza A and B viruses; assay: microbe, parasite or virus in culture; format: cell-based
[12] = system: HA protein (A/Brisbane/59/2007); format: cell-based, influenza A virus
[13] = CC50 divided by EC90, dNHBE cells

Compound: CCC(CC)O[C@@H]1C=C(C(=O)O)C[C@H](N)[C@H]1NC(C)=O [oseltamivir carboxylate]
- EC90 [1]: < 1 µM
- EC90 (A/Anhui/1/2013 (H7N9)): < 1 µM
- EC90 (A/Perth/16/2009 (H3N2); Influenza A virus, H3N2, 48 h): < 1 µM
- EC90 ([2]; Influenza A virus, H1N1, 48 h): < 1 µM
- inhibition of virus replication at 24 and 48 h postinfection [3]: inhibited virus replication
- EC90 ([4]; Influenza A virus, H1N1, 48 h): < 1 µM
- EC90 (B/Texas/06/2011; Influenza B virus, 48 h): < 1 µM

Compound: C[n+]1ccc(C(=O)NCc2ccccc2)cc1 [enisamium, N-methyl-4-benzylcarbamidopyridinium]
- Intracellular concentration of enisamium (mean ± SD) ([5]; 10 µM enisamium, 24 h): 36.8 ng/10^6 cells and 36.8 ± 3.9 ng/10^6 cells
- Permeability (mean ± SD) ([5]; 10 µM enisamium, 24 h): 1.40 ± 0.15%
- Intracellular concentration of enisamium (mean ± SD) ([5]; 50 µM enisamium, 24 h): 213 ng/10^6 cells and 213 ± 34 ng/10^6 cells
- Permeability (mean ± SD) ([5]; 50 µM enisamium, 24 h): 1.62 ± 0.26%
- Intracellular concentration of enisamium (mean ± SD) ([5]; 100 µM enisamium, 24 h): 410 ng/10^6 cells and 410 ± 77 ng/10^6 cells
- Permeability (mean ± SD) ([5]; 100 µM enisamium, 24 h): 1.56 ± 0.29%
- Intracellular concentration of enisamium (mean ± SD) ([5]; 500 µM enisamium, 24 h): 1727 ng/10^6 cells and 1727 ± 108 ng/10^6 cells
- Permeability (mean ± SD) ([5]; 500 µM enisamium, 24 h): 1.31 ± 0.08%
- Intracellular concentration of enisamium (mean ± SD) ([5]; 1000 µM enisamium, 24 h): 3009 ng/10^6 cells and 3009 ± 132 ng/10^6 cells
- Permeability (mean ± SD) ([5]; 1000 µM enisamium, 24 h): 1.15 ± 0.05%
- Concentration of enisamium, Intracellular (mean ± SD) ([5]; 2000 µM enisamium chloride, 24 h, n = 3 wells): 10,700 ± 1900 ng/10^6 cells
- Permeability, all concentrations tested ([5]; 10-1000 µM enisamium, 24 h): 1.1–1.6%
- enisamium uptake ([5]; exposure 0.25 h): 482 ng/10^6 cells
- enisamium uptake ([5]; exposure 24 h): 2732 ng/10^6 cells
- Permeability (mean ± SD) ([5]; ratio intracellular to initial input, 2000 µM enisamium chloride, 24 h): 1.9% and 1.90 ± 0.20%
- Concentration of enisamium, Intracellular (mean ± SD) ([6]; n = 3 wells): 4110 ± 830 ng/10^6 cells
- Permeability (mean ± SD) ([6]; ratio intracellular to initial input): 0.85 ± 0.21%
- Selectivity index [1]: 25
- EC90 [1]: 400 µM
- inhibition of virus replication (virus yield reduction) [7]: 2.3–2.6 log10TCID50/ml
- reductions in virus titers [7]: ≥ 100 fold
- virus yield reduction [7]: 1.3 log10TCID50/ml and 0.7 log10TCID50/ml
- Antiviral activity in MDCK cells (plaque number/size, virus titers) [8]: no antiviral activity was found; also recorded: did not reduce; also recorded: ineffective
- viral M gene RNA versus untreated cells [9]: lower
- Selectivity index (A/Anhui/1/2013 (H7N9)): 24
- EC90 (A/Anhui/1/2013 (H7N9)): 410 µM
- inhibition of viral RNA synthesis [10]: nearly a complete inhibition
- Selectivity index (A/Perth/16/2009 (H3N2); [13]): 30
- EC90 (A/Perth/16/2009 (H3N2); Influenza A virus, H3N2, 48 h): 287 µM
- EC90 (A/Perth/16/2009 (H3N2)): 375 µM
- Concentration of enisamium, Intracellular (mean ± SD) (MDCK cells): 27.9 ± 1.4 ng/10^6 cells
- EC90 ([11]; Influenza A virus, read-out: 90% effective (EC90) concentration range): 157 to 439 µM
- reduction of virus titers ([11]; at certain concentrations, dNHBE cells): 100 fold
- Selectivity index values (CC50 divided by EC90) ([11]; range over all viruses tested, dNHBE cells): 23- to 64 and > 20
- Selectivity index [2, 13]: 34
- EC90 ([2]; Influenza A virus, H1N1, 48 h): 233 µM
- EC90 [2]: 351 µM
- antiviral effect at lower concentrations ([3]; 100 and 500 µM, 24 h pretreatment): did not appreciably show an antiviral effect
- intracellular concentration required for achieving an antiviral activity ([3]; dNHBE cells): exceeds 1885 ng/10^6 cells
- amount of detectable HA protein [12]: markedly decreased
- Selectivity index [4, 13]: 23
- EC90 ([4]; Influenza A virus, H1N1, 48 h): 412 µM
- EC90 [4]: 466 µM
- Selectivity index (B/Texas/06/2011; [13]): 64
- EC90 (B/Texas/06/2011; Influenza B virus, 48 h): 105 µM
- EC90 (B/Texas/06/2011): 209 µM
